Measurements as given in EP4813381A1, “PHARMACEUTICAL USE OF GUAIANE SESQUITERPENE DERIVATIVE” (Nanjing University Of Chinese Medicine, priority 2023, dated 2025).

Assays:
[1] = tested on: MC903-induced atopic dermatitis (AD); assay: MC903-induced ear atopic dermatitis mouse model, oral Compound 20: dermatitis score, ear thickness, serum IgE; conditions: 5 mg/kg
[2] = tested on: inflammatory cytokines (TNF, IL-6, IL-1); assay: LPS mouse sepsis model: Q-PCR of inflammatory factor mRNA in lung, liver and kidney; type: in vivo, C57BL/6 mice; conditions: sepsis mice, 5 mg/kg
Source text: Gently pipette to mix the above reagents. The reaction conditions are as follows:
Detailed information is as follows:

[3] = tested on: MC903-induced atopic dermatitis (AD); assay: MC903-induced AD model on the dorsum of mice, Compound 1 ointment: skin thickness and dermatitis score; type: in vivo; parameters: Skin thickness: unit not given here
Experimental: Weigh white petrolatum, light liquid paraffin, glyceryl monostearate, ethylparaben, and cetyl alcohol. Heat to 65 °C while stirring until dissolved. Slowly add the dissolved active pharmaceutical ingredient (API) while continuing to stir until uniformly mixed. Set aside. • (2) Aqueous Phase Preparation: […] Slowly add the aqueous phase to the oil phase while maintaining 65 °C, homogenize, and continue stirring for 30 min; • (4) Cooling: Stop heating, continue stirring, gradually reduce to room temperature, cool to form an ointment, and fill containers. […] Dissolve these substances in a small amount of propylene glycol, then place the resulting solution into the aforementioned pre-cooled blank ointment base. […] Establishment of the AD Model on the Dorsum of Mice and Drug Administration: […] Except for the Normal group, all other groups underwent AD modeling: 48 hours prior to the experiment, hair on the dorsal neck region was meticulously removed using clippers and depilatory cream. […] Model and control group mice received daily application of blank ointment. Twenty-four hours after completing the 14-day modeling period, photographs of skin lesions were taken, and skin lesion and blood samples were collected. Skin Lesion Severity Score: […] Statistical analysis was performed on the data.

[4] = tested on: Human keratinocytes (Hacat); assay: Hyaluronic acid and hyaluronidase levels in UVB-irradiated human keratinocytes; type: cell-based; conditions: UVB 90 mJ/cm^2, 24 h, 1 µM
Experimental: Human keratinocytes (Hacat) were cultured routinely in DMEM medium containing 10% FBS within a 5% CO2 incubator.

Rat mast cells (RBL-2H3) = assay: Mast cell degranulation test (anti-DNP IgE / DNP-HSA); type: cell-based; conditions: RBL-2H3, IgE+HSA, 4 h, 1 µM
Experimental: Rat mast cells (RBL-2H3) were cultured routinely in DMEM medium containing 10% FBS within a 5% CO2 incubator. Upon reaching 70-80% confluence, cells were uniformly seeded at a density of 1 × 10^5 cells/mL into 6-well plates (2 mL per well), divided into the following groups: Normal, IgE+HSA, Compound 1 (0.01, 0.1, 1, 10 µM). Mast cells were sensitized with 500 µg/L anti-DNP IgE for 12 h. washed with PBS, and cultured for an additional 12 h with 100 µg/L DNP-HSA. Compound 1 at the specified concentrations was then added. […]

[5] = tested on: inflammatory factors Tslp, Tnf and Th2-associated factors Il4, Il13, Il31; assay: MC903-induced ear atopic dermatitis mouse model, oral Compound 20: Q-PCR of ear; conditions: ear mRNA, AD mice, 5 mg/kg
[6] = tested on: MC903-induced atopic dermatitis (AD); assay: MC903-induced ear atopic dermatitis mouse model, Compound 1 ointment: ear thickness and dermatitis score; type: in vivo, mice; conditions: for ear thickness: 1% ointment
Experimental: Weigh white petrolatum, light liquid paraffin, glyceryl monostearate, ethylparaben, and cetyl alcohol. Heat to 65 °C while stirring until dissolved. Slowly add the dissolved active pharmaceutical ingredient (API) while continuing to stir until uniformly mixed. Set aside. • (2) Aqueous Phase Preparation: […] Slowly add the aqueous phase to the oil phase while maintaining 65 °C, homogenize, and continue stirring for 30 min; • (4) Cooling: Stop heating, continue stirring, gradually reduce to room temperature, cool to form an ointment, and fill containers. […] Dissolve these substances in a small amount of propylene glycol, then place the resulting solution into the aforementioned pre-cooled blank ointment base. […] Skin Lesion Severity Score: […] Statistical analysis was performed on the data.

[7] = tested on: Th2-related factors Il4, Il13, Il31 and inflammatory factors Tslp, Tnf, Il1; assay: MC903-induced ear atopic dermatitis mouse model, Compound 1 ointment: Q-PCR of ear; type: in vivo; parameters: unit not given here; conditions: ear mRNA, AD mice, 1% ointment
Experimental: Except for the Normal group, all other groups underwent AD modeling: 20 µL of MC903 solution (also known as calcipotriol, purchased from Shanghai Yuanye Biotechnology Co., Ltd., used for inducing atopic models) was applied to each mouse's ears once daily for 14 consecutive days to induce the atopic dermatitis model. […] Measure ear thickness changes every 2 days using an electronic caliper before modeling and after treatment initiation.

## C[C@@H]1C[C@H]2[C@@H]3CCC4=CC(=O)C=C[C@]4(C)[C@@]3(F)[C@@H](O)C[C@]2(C)[C@@]1(O)C(=O)CO [Dex, Dexamethasone, reference compound]
[1]; Day 1
  atopic dermatitis score: 0.00±0.00
  ear thickness: 0.20±0.00 mm
[1]; Day 3
  atopic dermatitis score: 0.67±0.21
  ear thickness: 0.23±0.00 mm
[1]; Day 5
  atopic dermatitis score: 1.50±0.22
  ear thickness: 0.25±0.00 mm
[1]; Day 7
  atopic dermatitis score: 2.00±0.26
  ear thickness: 0.26±0.00 mm
[1]; Day 8
  atopic dermatitis score: 2.83±0.31
  ear thickness: 0.26±0.00 mm
[1]; Day 9
  atopic dermatitis score: 3.00±0.00
  ear thickness: 0.27±0.00 mm
[1]; Day 10
  atopic dermatitis score: 3.17±0.17
  ear thickness: 0.28±0.00 mm
[1]; Day 11
  atopic dermatitis score: 3.50±0.22
  ear thickness: 0.27±0.00 mm
[1]; Day 12
  atopic dermatitis score: 3.00±0.26
  ear thickness: 0.27±0.00 mm
[1]; Day 13
  atopic dermatitis score: 2.67±0.21
  ear thickness: 0.27±0.00 mm
[1]; Day 14
  atopic dermatitis score: 2.00±0.26
  ear thickness: 0.26±0.00 mm
[1]; serum, AD mice
  IgE: 191.65 ± 39.26 ng/mL
[2]; kidney mRNA (relative, Gapdh)
  Tnf: 6.62±0.68
[2]; liver mRNA (relative, Gapdh)
  Tnf: 7.04±0.77
[2]; lung mRNA (relative, Gapdh)
  Tnf: 8.99 ± 0.76
[3]; back, 1% ointment for 7 days, score max 12
  Dermatitis Score: 4.17±0.31
[3]; dorsal region, AD mice, 1% ointment
  Skin thickness: 30.44±0.62
[4]
  Hyaluronidase: 87.14 ± 9.63 ng/mL
Rat mast cells (RBL-2H3)
  β-Glucosaminidase: 9.78 ± 0.01 ng/mL
[5]
  TSLP: 2.13±0.26
  Tnf: 2.30±0.36
[6]; Day 1
  ear thickness: 0.15±0.00 mm
[6]; Day 3
  ear thickness: 0.18±0.00 mm
[6]; Day 5
  ear thickness: 0.22±0.00 mm
[6]; Day 7
  ear thickness: 0.24±0.01 mm
[6]; Day 8
  ear thickness: 0.24±0.00 mm
[6]; Day 9
  ear thickness: 0.24±0.01 mm
[6]; Day 10
  ear thickness: 0.25±0.01 mm
[6]; Day 11
  ear thickness: 0.26±0.01 mm
[6]; Day 12
  ear thickness: 0.28±0.00 mm
[6]; Day 13
  ear thickness: 0.27±0.01 mm
[6]; Day 14
  ear thickness: 0.26±0.01 mm
[6]; ear, 1% ointment for 7 days, score max 12
  Dermatitis Score: 3.50±0.22
[7]
  TSLP: 1.30 ±0.17
  Tnf: 1.38 ±0.22
